The supplement of paper PMC10307832

Experiments:
Assay in all cases: relative viability (nuclei count vs DMSO), 5 days (fraction); higher = more cells survive
[1] = compound: OCc1c[nH]c2ccccc12 [Indole-3-carbinol] + CC(C)C[C@H](NC(=O)[C@H](Cc1ccccc1)NC(=O)c1cnccn1)B(O)O [Bortezomib] (partner 0.002 µM)
How it was run: (§1)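 Relative viability is defined as nuclei in treated wells over nuclei in vehicle wells. Duplicate plates were run and medians reported. Lung cancer cell lines in 1536-well plates were dosed by pin tool one day after seeding, with one drug or with a fixed anchor-drug dose plus five library-drug doses (not always all listed) in √10 steps, and nuclei were counted after 5 days.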

[2] = compound: OCc1c[nH]c2ccccc12 [Indole-3-carbinol] + C[C@]1(O)C[C@@H](c2nc(-c3ccc4ccc(-c5ccccc5)nc4c3)c3c(N)nccn32)C1 [Linsitinib] (partner 1 µM)
How it was run: as §1

[3] = compound: OCc1c[nH]c2ccccc12 [Indole-3-carbinol] + Cc1nc(NC(=O)N2CCC[C@H]2C(N)=O)sc1-c1ccnc(C(C)(C)C(F)(F)F)c1 [Alpelisib] (partner 2 µM)
How it was run: as §1

[4] = compound: OCc1c[nH]c2ccccc12 [Indole-3-carbinol] + CS(=O)(=O)N1CCN(Cc2cc3nc(-c4cccc5[nH]ncc45)nc(N4CCOCC4)c3s2)CC1 [Pictilisib] (partner 1 µM)
How it was run: as §1

[5] = compound: OCc1c[nH]c2ccccc12 [Indole-3-carbinol] + C[C@@H](Oc1cc(-c2cnn(C3CCNCC3)c2)cnc1N)c1c(Cl)ccc(F)c1Cl [Crizotinib] (partner 1 µM)
How it was run: as §1

| Cell Line | relative viability ([1]; first compound 0.253 µM) | relative viability ([1]; first compound 0.8 µM) | relative viability ([1]; first compound 2.53 µM) | relative viability ([1]; first compound 8 µM) | relative viability ([2]; first compound 0.253 µM) | relative viability ([2]; first compound 0.8 µM) | relative viability ([2]; first compound 2.53 µM) | relative viability ([2]; first compound 8 µM) | relative viability ([3]; first compound 0.253 µM) | relative viability ([3]; first compound 0.8 µM) | relative viability ([3]; first compound 2.53 µM) | relative viability ([3]; first compound 8 µM) | relative viability ([4]; first compound 0.253 µM) | relative viability ([4]; first compound 0.8 µM) | relative viability ([4]; first compound 2.53 µM) | relative viability ([4]; first compound 8 µM) | relative viability ([5]; first compound 0.253 µM) | relative viability ([5]; first compound 0.8 µM) | relative viability ([5]; first compound 2.53 µM) | relative viability ([5]; first compound 8 µM) |
| --- | --- | --- | --- | --- | --- | --- | --- | --- | --- | --- | --- | --- | --- | --- | --- | --- | --- | --- | --- | --- |
| 201T | 1.17 | 0.996 | 1.11 | 1.1 | 1.03 | 0.975 | 1.1 | 1.05 | 0.954 | 1.04 | 1.06 | 1.06 | 0.653 | 0.682 | 0.621 | 0.699 | 1.03 | 1.02 | 1.07 | 1.01 |
| A549 | – | – | – | – | 0.656 | 0.578 | 0.697 | 0.545 | 0.876 | 0.842 | 0.832 | 0.66 | 0.493 | 0.686 | 0.555 | 0.456 | 0.712 | 0.914 | 0.819 | 0.765 |
| A-427 | 0.937 | 0.992 | 1.03 | 0.886 | 1.1 | 1.06 | 1.09 | 1.08 | 1.01 | 1.14 | 1.05 | 0.953 | 0.74 | 0.66 | 0.679 | 0.588 | 0.888 | 0.847 | 1.18 | 0.828 |
| ABC-1 | 0.297 | 0.292 | 0.324 | 0.33 | 0.931 | 1.04 | 0.82 | 0.706 | 0.923 | 1.2 | 1.01 | 0.923 | 0.755 | 0.786 | 0.782 | 0.66 | 0.973 | 0.925 | 1.39 | 1.33 |
| BEN | 0.91 | 0.729 | 0.966 | 0.727 | 0.863 | 0.827 | 0.84 | 0.847 | 0.948 | 0.808 | 1.02 | 0.929 | 0.497 | 0.456 | 0.69 | 0.542 | 0.857 | 0.722 | 0.917 | 0.743 |
| CAL-12T | 0.983 | 1 | 0.842 | 0.819 | 0.835 | 0.846 | 0.832 | 0.71 | 1.04 | 1.61 | 1.47 | 1.17 | 0.338 | 0.616 | 0.398 | 0.377 | 0.657 | 0.866 | 0.718 | 0.639 |
| COR-L23 | 0.926 | 1.14 | 0.899 | 0.883 | 0.962 | 0.862 | 0.993 | 0.786 | 0.818 | 1.06 | 0.673 | 0.601 | 0.876 | 0.848 | 0.828 | 0.674 | 0.751 | 0.724 | 0.748 | 0.485 |
| COR-L 105 | 0.847 | 0.733 | 0.812 | 0.806 | 0.693 | 0.767 | 0.99 | 0.65 | 1.07 | 1.21 | 0.925 | 0.979 | 0.371 | 0.374 | 0.432 | 0.382 | 0.93 | 0.681 | 0.781 | 0.731 |
| ChaGo-K-1 | 0.871 | 0.988 | 0.896 | 1.06 | – | – | – | – | – | – | – | – | 0.524 | 0.891 | 0.666 | 0.649 | 1.21 | 1.04 | 1.18 | 1.1 |
| EKVX | 1.24 | 1.1 | 1.12 | 1.04 | 1.03 | 1.03 | 0.973 | 0.976 | 0.763 | 0.973 | 0.9 | 0.852 | 0.43 | 0.449 | 0.418 | 0.402 | 1.09 | 1.24 | 0.648 | 0.864 |
| EMC-BAC-2 | 0.994 | 1.01 | 1.08 | 1.02 | 0.827 | 0.823 | 0.806 | 0.771 | 0.715 | 0.731 | 0.741 | 0.665 | 0.532 | 0.453 | 0.555 | 0.359 | 0.72 | 0.785 | 0.794 | 0.666 |
| EPLC-272H | 1.27 | 0.925 | 0.985 | 0.837 | 1.38 | 1.28 | 1.24 | 1.11 | 1.13 | 0.94 | 0.931 | 0.803 | 0.337 | 0.329 | 0.293 | 0.298 | 0.997 | 1.14 | 0.947 | 1.01 |
| H3255 | 0.899 | 0.852 | 0.748 | 0.732 | 0.916 | 0.983 | 0.928 | 0.897 | 0.671 | 0.741 | 0.675 | 0.643 | 0.427 | 0.483 | 0.467 | 0.48 | 0.865 | 0.817 | 0.968 | 0.759 |
| HARA | 1.2 | 1.06 | 1.11 | 1.06 | 0.92 | 0.979 | 1.06 | 0.978 | 0.759 | 0.808 | 0.93 | 0.773 | 0.299 | 0.573 | 0.573 | 0.407 | 1.11 | 1.23 | 1.06 | 0.987 |
| HCC-15 | 1.08 | 1.08 | 1.1 | 1.06 | 0.845 | 1.02 | 0.824 | 0.843 | 0.824 | 0.986 | 0.987 | 0.848 | 0.714 | 0.773 | 0.735 | 0.719 | 0.79 | 0.879 | 0.852 | 0.763 |
| HCC-44 | 0.911 | 1.03 | 0.888 | 0.869 | 0.74 | 0.705 | 0.614 | 0.625 | 0.788 | 0.845 | 0.851 | 0.773 | 0.52 | 0.499 | 0.49 | 0.506 | 0.891 | 0.946 | 0.913 | 0.782 |
| HCC-78 | 0.416 | 0.51 | 0.403 | 0.554 | 0.534 | 0.449 | 0.547 | 0.538 | 0.346 | 0.309 | 0.269 | 0.334 | 0.202 | 0.205 | 0.192 | 0.196 | 0.307 | 0.328 | 0.369 | 0.342 |
| HCC-366 | 0.986 | 0.858 | 1.05 | 1.09 | 0.663 | 0.369 | 0.615 | 0.705 | 0.505 | 0.264 | 0.48 | 0.381 | 0.175 | 0.111 | 0.18 | 0.18 | 0.606 | 0.497 | 0.732 | 0.561 |
| HCC-827 | 0.873 | 0.986 | 1.03 | 0.986 | 1.04 | 1.01 | 0.962 | 0.942 | 0.911 | 1 | 0.99 | 0.985 | 0.926 | 1.04 | 0.841 | 1.07 | 0.9 | 1.03 | 0.945 | 0.892 |
| HOP-62 | 0.989 | 0.711 | 0.82 | 0.521 | 1.03 | 1.06 | 1.14 | 0.937 | 1.01 | 0.795 | 0.867 | 0.929 | 0.771 | 0.806 | 1.01 | 0.731 | 0.621 | 0.912 | 0.889 | 0.924 |
| IA-LM | 0.842 | 0.898 | 0.82 | 0.789 | 0.674 | 0.593 | 0.637 | 0.444 | 0.672 | 0.866 | 0.77 | 0.713 | 0.348 | 0.291 | 0.362 | 0.237 | 0.722 | 1.08 | 0.863 | 0.738 |
| LK-2 | – | – | – | – | 0.627 | 0.572 | 0.47 | 0.536 | 1.11 | 1.02 | 1.25 | 1.05 | 0.475 | 0.46 | 0.977 | 0.628 | 0.239 | 0.218 | 0.198 | 0.229 |
| NCI-H358 | – | – | – | – | 0.697 | 0.7 | 0.734 | 0.709 | 0.773 | 0.777 | 0.992 | 0.959 | 0.408 | 0.354 | 0.344 | 0.32 | 0.64 | 0.698 | 0.735 | 0.461 |
| NCI-H1395 | – | – | – | – | 1.04 | 0.974 | 1.02 | 1.14 | 1.31 | 0.984 | 0.983 | 1.02 | 0.616 | 0.67 | 0.639 | 0.662 | – | – | – | – |
| NCI-H1650 | 0.19 | 0.192 | 0.207 | 0.194 | – | – | – | – | – | – | – | – | 0.521 | 0.399 | 0.547 | 0.6 | 0.907 | 1.02 | 1.16 | 0.968 |
| NCI-H1793 | – | – | – | – | 0.932 | 0.898 | 1.08 | 0.927 | 0.779 | 0.768 | 0.649 | 0.754 | 0.461 | 0.204 | 0.376 | 0.271 | – | – | – | – |
| NCI-H1944 | – | – | – | – | 1.27 | 1.1 | 1.17 | 1.17 | 0.871 | 0.805 | 0.725 | 0.822 | 0.329 | 0.3 | 0.348 | 0.301 | 1.06 | 0.951 | 1.12 | 0.955 |
| NCI-H2170 | – | – | – | – | – | – | – | – | 0.794 | 0.815 | 0.738 | 0.81 | 0.329 | 0.308 | 0.322 | 0.311 | 1.26 | 1.3 | 1.15 | 1.03 |
| SK-MES-1 | – | – | – | – | 1.12 | 1.13 | 1.08 | 1.07 | 0.908 | 0.979 | 0.833 | 0.764 | 0.416 | 0.356 | 0.321 | 0.4 | 0.996 | 1.07 | 1.03 | 0.965 |
